Results on three compounds are retold here after patent US20130323721A1, “HEPATOCYTES FOR IN VITRO GENOTOXICITY TESTS” (MEDICYTE GMBH, priority 2010, published 2013).

Series [1] has as its system proliferating hepatocytes. In words: Micronucleus formation in proliferating hepatocytes, FACS assay. Here is the method:
So as to check the suitability of the proliferatable hepatocytes described in the patent with respect to genotoxicity tests, the cells were treated with substances that are considered positive and negative substances for genotoxicity. Genotoxicity was quantified by way of the share of induced micronuclei as compared to the control group using an FACS assay.
The proliferating hepatocytes described in the invention were plated out in a density of 3000 cells/cm^2 on collagen-coated cell culture vessels and treated with the aforementioned substances in various concentrations. Within the scope of regulatory testing according to OECD, testing took place up to 50% cytotoxicity, which was determined for each substance beforehand by way of a MTT viability assay.
(A flow cytometer gives signals particle by particle.)

Series [2] deals with bacteria (auxotrophic mutants). The note with it: with S9 fraction of hamster liver; cited from earlier work.
The test system of a further series is V79 cells. The following applies: with or without S9 mix; cited from earlier work.

Read-outs that look alike come from different tables or passages of the source.

Regarding `COc1cc(/C=C/C(=O)CC(=O)/C=C/c2ccc(O)c(OC)c2)ccc1O` [curcumin], the “Genotoxicity: induced micronuclei compared to the control group” value in series [1] is “did not induce increased micronuclei formation”.

For the compound `CCOc1ccc(NC(C)=O)cc1` [phenacetin], the “Ames test result (mutagenicity)” value in series [2] was “only tested positively in the Ames test if an incubation of phenacetin is carried out with the S9 fraction of hamster liver”.

For `O=P1(N(CCCl)CCCl)NCCCO1` (stereo not shown) [CPA, cyclophosphamide], the “Detection of genotoxicity in micronucleus test” value with V79 cells is listed as “only detected in the currently used micronucleus test with V79 cells if the substance was previously converted with a CYP enzyme extract (S9 mix)”. Further, the “Genotoxicity: induced micronuclei compared to the control group” value in series [1] (various concentrations up to 50% cytotoxicity, no external S9, FIGS. 2-4) is on record as “clearly recognized as being positive”.
